The results in this text go back to patent US11046745B2, “Peptide mimotopes of the CD3 T-cell co-receptor epsilon chain and uses thereof” (BioNTech SE, priority 2015, dated 2021).

The subject of assay [1] is TR66 antibody (CD3ε specific antibody, clone TR66). The assay can be described thus: Binding analysis using biolayer interferometry (BLI), Octet Red, biotinylated peptides on streptavidin sensors. The following applies: for Yes/no binding, BLI: 500 nM TR66 antibody, one concentration; for Binding of TR66 in detailed BLI analysis (FIG. 5): TR66 1.5625 to 100 nM, dissociation constant could not be fitted. The method, then: FIG. 5. Comparative binding analysis of matured TR66 mimotopes aCD3-04-002 and aCD3-04-013 using biolayer interferometry (BLI) on an Octet Red system (fortéBIO). Biotinylated peptides were immobilized onto streptavidin (SA) sensors. After blocking with 1× blocking buffer and biocytin association and dissociaten rates of TR66 binding were recorded over a period of 2400 sec respectively. The antibody was used in a range of 1.5625 to 100 nM (1.5625, 3.125, 6.25, 12.5, 25, 50, 100 nM) for each analyzed peptide.
Binding analysis was performed using streptavidin (SA) sensors on an Octet Red system (fortéBIO). 5 μg/ml of biotinylated peptides were used for loading (200 μl per sensor). […] Remained biotin binding sites on coated streptavidin sensors were blocked using 100 μg/ml biocytin (Sigma-Aldrich) for 5 minutes. For binding mode analysis of different peptides 500 nM TR66 antibody was used in the association step. For detailed analysis the antibody was used in a range of 1.5625 to 100 nM (1.5625, 3.125, 6.25, 12.5, 25, 50, 100 nM) for each analyzed peptide. The following program was used: • Baseline: 1000 rpm for 180 sec. • Load: 1000 rpm for 900 sec. • Baseline: 1000 rpm for 180 sec. • Blocking: 1000 rpm for 300 sec. • Association: 1000 rpm for 1200-2400 sec. • Dissociation: 1000 rpm for 1200-2400 sec.
The peptides displaying the highest binding affinities from the peptide microarray experiments were synthesized by standard Fmoc-based solid-phase-synthesis protocols and purified (HPLC purity: >80%). The binding characteristics of each peptide were determined. In the first instance all peptides were analysed via biolayer interferometry (BLI) to get a first impression whether the respective variant has a significant binding property at all (yes/no binding, Table 2). At his point, only one TR66 concentration (500 nM) was tested. Except variants aCD3-04-010 and aCD3-04-012 all peptides show a measurable binding activity.

Assay [2] addresses TR66 antibody (CD3ε specific antibody, clone TR66). The assay can be described thus: Binding analysis using peptide ELISA, biotinylated peptides on streptavidin plates, TR66. The following applies: TR66; mean of at least two individual measurements; two-site saturation binding model; read-out: Apparent KD, ELISA. The method, then: FIG. 3. Binding analysis of phage derived variants using a peptide based ELISA. Biotinylated peptides were immobilized on streptavidin plates (Nunc) in a concentration of 0.75 μg/ml. After blocking 30 μg/ml TR66 or an unrelated antibody (control ab) were added and incubated for 1 h at 37° C. Binding was detected with an alkaline phosphatase conjugated goat anti-human IgG antibody (Sigma) and the chromogenic substrate PNPP (para-nitrophenyl phosphate). All reactions were performed as duplicates. SD values are presented as error bars.
For the detection of TR66 or OKT3 (Bio-X-Cell), the CD3 mimicking peptides were immobilized on streptavidin plates (Nunc) in a concentration of 0.75 μg/ml in PBS buffer for 1 hour at 37° C. Subsequently, the plate was washed three times with washing buffer (0.01% Tween-20 in PBS buffer) before it was blocked with 3% BSA in PBS overnight at 4° C. To detect TR66 or OKT3, the blocked plate was washed again three times with washing buffer followed by the addition of TR66 or OKT3 and incubation for 30 min at 37° C. After another washing step, it was incubated with an alkaline phosphatase conjugated Goat anti-human or anti-mouse IgG, Fe antibody (Jackson Immuno Research) for additional 30 min at 37° C. Finally, the plate was washed again before being incubated with 1.5 mg/ml of the substrate PNPP (para-nitrophenyl phosphate) in appropriate substrate buffer (1 M Diethanolamine, 0.05 mM MgCl2, 0.01% sodium azide, pH 9.8) for 30 min at RT in the dark. 3 M KOH was used to stop the enzymatic reaction. Absorbance was measured with a microplate reader (Infinite M200, Tecan). For dual wavelength analysis, 405 nm was chosen as measurement wavelength and 492 nm as reference wavelength. Absorbance values were calculated by subtraction of the measured values for the reference wavelength and for the measurement wavelength. Calculation of apparent KD values was done by fitting the data with Sigma Plot 10 using a two-site saturation binding model.
A general note: In an ELISA, binding on a coated surface is turned into a signal by an enzyme label.

Assay [3] deals with Muromonab-CD3 (Orthoclone OKT3), CD3-specific monoclonal antibody. As to the kind of experiment: Peptide ELISA for cross-reactivity to OKT3. In kind it is binding, murine. The method, then:
FIG. 6. Comparative binding analysis of maturated TR66 mimotope aCD3-04-013 to approved antibody Muromanab-CD3 (Orthoclone OKT3®). Biotinylated peptides were immobilized on streptavidin plates (Nunc). After blocking different concentrations (0, 156, 312, 625, 1250, 5000 and 10000 ng/ml) of TR66, OKT3 or an unrelated antibody (control ab) were added and incubated for 1 h at 37° C. Binding was detected with an alkaline phosphatase conjugated goat anti-human IgG antibody (Sigma) and the chromogenic substrate PNPP (para-nitrophenyl phosphate). All reactions were performed as duplicates. SD values are presented as error bars.
For the detection of TR66 or OKT3 (Bio-X-Cell), the CD3 mimicking peptides were immobilized on streptavidin plates (Nunc) in a concentration of 0.75 μg/ml in PBS buffer for 1 hour at 37° C. Subsequently, the plate was washed three times with washing buffer (0.01% Tween-20 in PBS buffer) before it was blocked with 3% BSA in PBS overnight at 4° C. To detect TR66 or OKT3, the blocked plate was washed again three times with washing buffer followed by the addition of TR66 or OKT3 and incubation for 30 min at 37° C. […] Absorbance was measured with a microplate reader (Infinite M200, Tecan). […] Absorbance values were calculated by subtraction of the measured values for the reference wavelength and for the measurement wavelength. […]

pKd: −log10 of the molar value. Positions of bridges follow the written chain, without caps; N, C: chain ends. Residues, ends and D or L forms follow the SMILES beside them. No end group written: not given here. *: point of attachment. Biotin = O=C1N[C@H]2[C@H](CS[C@H]2CCCCC(=O)*)N1

What is called pKd is −log10 of the Kd, conventionally taken in molar units. `C[C@H](N)C(=O)N[C@H]1CSSC[C@@H](C(=O)NCC(=O)NCC(=O)NCC(=O)N[C@@H](CO)C(=O)N[C@@H](CCCCNC(=O)CCCC[C@@H]2SC[C@@H]3NC(=O)N[C@@H]32)C(=O)O)NC(=O)[C@H](CCC(N)=O)NC(=O)[C@@H]2CCCN2C(=O)[C@H](CC(=O)O)NC(=O)[C@H](CC(=O)O)NC(=O)[C@@H]2CCCN2C(=O)[C@H](CCCNC(=N)N)NC(=O)[C@H]([C@@H](C)O)NC1=O` [aCD3-04-002, ACTRPDDPQC-GGGS-K(Bio)] (H-ACTRPDDPQCGGGSK(Biotin)-OH; disulfide 2-10): in assay [1], the “Yes/no binding, BLI” value was “Yes” and the “Binding of TR66 in detailed BLI analysis (FIG. 5)” value is listed as “concentration-dependent binding”. Moreover, in assay [2], the pKd was 7.11.

As to `C[C@@H](O)[C@@H]1NC(=O)[C@@H](NC(=O)[C@@H](N)Cc2c[nH]c3ccccc23)CSSC[C@@H](C(=O)NCC(=O)NCC(=O)NCC(=O)N[C@@H](CO)C(=O)N[C@@H](CCCCNC(=O)CCCC[C@@H]2SC[C@@H]3NC(=O)N[C@@H]32)C(=O)O)NC(=O)[C@H](CCC(N)=O)NC(=O)[C@@H]2CCCN2C(=O)[C@H](CC(=O)O)NC(=O)CNC(=O)[C@@H]2CCCN2C(=O)[C@H](CCCNC(=N)N)NC1=O` [aCD3-04-006, WCTRPGDPQC-GGGS-K(Bio)] (H-WCTRPGDPQCGGGSK(Biotin)-OH; disulfide 2-10), the “Yes/no binding, BLI” value in assay [1] is listed as “Yes”. Besides, in assay [2], the pKd was 6.65.

As for `C[C@H](N)C(=O)N[C@H]1CSSC[C@@H](C(=O)NCC(=O)NCC(=O)NCC(=O)N[C@@H](CO)C(=O)N[C@@H](CCCCNC(=O)CCCC[C@@H]2SC[C@@H]3NC(=O)N[C@@H]32)C(=O)O)NC(=O)[C@H](CCC(N)=O)NC(=O)[C@@H]2CCCN2C(=O)[C@H](CC(=O)O)NC(=O)[C@H](CCC(=O)O)NC(=O)[C@@H]2CCCN2C(=O)[C@H](CCCNC(=N)N)NC(=O)[C@H]([C@@H](C)O)NC1=O` [aCD3-04-007, ACTRPEDPQC-GGGS-K(Bio)] (H-ACTRPEDPQCGGGSK(Biotin)-OH; disulfide 2-10), in assay [1], the “Yes/no binding, BLI” value is “Yes”. In assay [2], the pKd is 6.52.

In the case of `C[C@H](N)C(=O)N[C@H]1CSSC[C@@H](C(=O)NCC(=O)NCC(=O)NCC(=O)N[C@@H](CO)C(=O)N[C@@H](CCCCNC(=O)CCCC[C@@H]2SC[C@@H]3NC(=O)N[C@@H]32)C(=O)O)NC(=O)[C@H](C)NC(=O)[C@@H]2CCCN2C(=O)[C@H](CC(=O)O)NC(=O)CNC(=O)[C@@H]2CCCN2C(=O)[C@H](CCCNC(=N)N)NC(=O)[C@H]([C@@H](C)O)NC1=O` [aCD3-04-008, ACTRPGDPAC-GGGS-K(Bio)] (H-ACTRPGDPACGGGSK(Biotin)-OH; disulfide 2-10), in assay [1], the “Yes/no binding, BLI” value is given as “Yes”. The pKd in assay [2] is 6.79.

Take `C[C@H](N)C(=O)N[C@H]1CSSC[C@@H](C(=O)NCC(=O)NCC(=O)NCC(=O)N[C@@H](CO)C(=O)N[C@@H](CCCCNC(=O)CCCC[C@@H]2SC[C@@H]3NC(=O)N[C@@H]32)C(=O)O)NC(=O)[C@H](Cc2ccc(O)cc2)NC(=O)[C@@H]2CCCN2C(=O)[C@H](CC(=O)O)NC(=O)CNC(=O)[C@@H]2CCCN2C(=O)[C@H](CCCNC(=N)N)NC(=O)[C@H]([C@@H](C)O)NC1=O` [aCD3-04-009, ACTRPGDPYC-GGGS-K(Bio)] (H-ACTRPGDPYCGGGSK(Biotin)-OH; disulfide 2-10): the “Yes/no binding, BLI” value in assay [1] is recorded as “Yes”. Besides, the pKd in assay [2] is 6.78.

In the case of `C[C@H](N)C(=O)N[C@H]1CSSC[C@@H](C(=O)NCC(=O)NCC(=O)NCC(=O)N[C@@H](CO)C(=O)N[C@@H](CCCCNC(=O)CCCC[C@@H]2SC[C@@H]3NC(=O)N[C@@H]32)C(=O)O)NC(=O)[C@H](CCC(=O)O)NC(=O)[C@@H]2CCCN2C(=O)[C@H](CC(=O)O)NC(=O)[C@H](CC(=O)O)NC(=O)[C@@H]2CCCN2C(=O)[C@H](CCCNC(=N)N)NC(=O)[C@H]([C@@H](C)O)NC1=O` [aCD3-04-013, ACTRPDDPEC-GGGS-K(Bio)] (H-ACTRPDDPECGGGSK(Biotin)-OH; disulfide 2-10), in assay [1], the “Yes/no binding, BLI” value is listed as “Yes” and the “Binding of TR66 in detailed BLI analysis (FIG. 5)” value is “concentration-dependent binding”. In addition, the “Binding of OKT3 to mimotope, ELISA titration (FIG. 6)” value in assay [3] (OKT3 titration 0-10000 ng/ml) was “specific binding”. In addition, the “Affinity of OKT3 binding compared to TR66 binding, ELISA” value in assay [3] (different detection antibodies for TR66 and OKT3) is recorded as “slightly lower affinity”. The pKd in assay [2] is 8.40.

Consider `C[C@H](N)C(=O)N[C@H]1CSSC[C@@H](C(=O)NCC(=O)NCC(=O)NCC(=O)N[C@@H](CO)C(=O)N[C@@H](CCCCNC(=O)CCCC[C@@H]2SC[C@@H]3NC(=O)N[C@@H]32)C(=O)O)NC(=O)[C@H](Cc2c[nH]c3ccccc23)NC(=O)[C@@H]2CCCN2C(=O)[C@H](CC(=O)O)NC(=O)[C@H](CC(=O)O)NC(=O)[C@@H]2CCCN2C(=O)[C@H](CCCNC(=N)N)NC(=O)[C@H]([C@@H](C)O)NC1=O` [aCD3-04-014, ACTRPDDPWC-GGGS-K(Bio)] (H-ACTRPDDPWCGGGSK(Biotin)-OH; disulfide 2-10), for which, in assay [1], the “Yes/no binding, BLI” value is given as “Yes”. The negative-log Kd (pKd) in assay [2] is 6.95.

In the case of “ACTR(NMI)GDPQC-GGGS-K(Bio) (ACTRLGDPQCGGGSK; not fully specified; N-methylisoleucine; GGGS linker; biotinylated lysine; MOD_RES (5)..(5) N-methylisoleucine; MOD_RES (15)..(15) K(Bio)) [aCD3-04-010]”, the “Yes/no binding, BLI” value in assay [1] is “No”.

Take “ACTRPWDPQC-GGGS-K(Bio) (ACTRPWDPQCGGGSK(Biotin); disulfide 2-10 (inferred)) [aCD3-04-012]”: the “Yes/no binding, BLI” value in assay [1] is recorded as “No”.
